Tests used:
[1] = Suspension competition experiment between anhydrous crystal form A and anhydrous crystal form C (XRPD); type: physicochemical; conditions: for Relative stability of crystal forms concluded from suspension competition: room temperature to 50 °C
[2] = Crystal form conversion of wet samples on air-drying at room temperature (XRPD); type: physicochemical; conditions: for Crystal form after air-drying: air-dried at room temperature for 1 d; for Stability of the crystal form: crystalline wet solid
[3] = Solid-form stability under long-term and accelerated conditions (HPLC purity, XRPD); type: physicochemical; conditions: 10 d; for Physical and chemical stability: 25 °C/60% RH and 40 °C/75% RH; for Purity (Area %): HPLC, initial purity 99.55 (form A), 99.84 (form C)
[4] = High-temperature stability (HPLC purity, XRPD); type: physicochemical; conditions: 60 °C, 10 d; for Purity (Area %): HPLC, initial purity 99.55 (form A), 99.84 (form C)
[5] = Hygroscopicity evaluation (DVS test, XRPD after DVS); type: physicochemical; conditions: for Sample weight change at 80% RH (%): DVS, 25 °C; for Whether crystal form changes before and after test: XRPD before and after DVS test; for Hygroscopicity: weight gain when humidity rises to 80% RH at 25 °C, Chinese Pharmacopoeia (2020 Edition)
[6] = biological target: T1, DHX33 (Homo sapiens, UniProt Q9H6R0); conditions: background statement, no data; cited from earlier work
T1 sequence (Q9H6R0 1-707): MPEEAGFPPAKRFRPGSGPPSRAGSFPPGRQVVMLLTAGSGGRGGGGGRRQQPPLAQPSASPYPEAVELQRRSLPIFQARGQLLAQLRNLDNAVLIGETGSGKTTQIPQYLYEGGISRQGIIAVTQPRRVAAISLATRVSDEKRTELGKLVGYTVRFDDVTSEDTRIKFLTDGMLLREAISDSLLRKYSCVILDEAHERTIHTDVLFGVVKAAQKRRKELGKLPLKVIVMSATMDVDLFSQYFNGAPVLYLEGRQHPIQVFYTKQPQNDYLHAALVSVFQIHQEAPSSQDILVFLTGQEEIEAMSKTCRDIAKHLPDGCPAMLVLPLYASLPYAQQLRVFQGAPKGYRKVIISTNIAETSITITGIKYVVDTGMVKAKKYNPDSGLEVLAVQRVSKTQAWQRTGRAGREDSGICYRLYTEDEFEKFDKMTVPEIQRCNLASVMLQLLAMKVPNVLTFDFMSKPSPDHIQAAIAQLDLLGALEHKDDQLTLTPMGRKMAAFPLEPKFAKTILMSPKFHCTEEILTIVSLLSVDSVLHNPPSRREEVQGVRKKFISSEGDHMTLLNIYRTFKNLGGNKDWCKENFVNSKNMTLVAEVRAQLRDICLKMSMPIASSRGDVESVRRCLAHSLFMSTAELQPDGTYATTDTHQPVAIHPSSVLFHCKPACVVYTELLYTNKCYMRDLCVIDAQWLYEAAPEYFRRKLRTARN

[7] = Heating experiment and variable temperature XRPD (VT-XRPD); type: physicochemical; conditions: heated to 120 °C
[8] = listed as anhydrous crystal form C
[9] = listed as anhydrous crystal form A

Structure (SMILES) | Stability of the crystal form [2] | Physical and chemical stability [3] | Crystal form Change ([3]; 25 °C/60% RH) | Purity (Area %) ([3]; 25 °C/60% RH) | Crystal form Change ([3]; 40 °C/75% RH) | Purity (Area %) ([3]; 40 °C/75% RH) | Crystal form Change [4] | Physical and chemical stability [4] | Purity (Area %) [4] | Sample weight change at 80% RH (%) [5] | Whether crystal form changes before and after test [5] | Hygroscopicity [5] | Crystal form after air-drying [2] | Relative stability of crystal forms concluded from suspension competition [1] | also measured
COc1ccc2nc(NC(=O)c3cc(C)n(-c4sc(C)cc4C#N)c3C)[nH]c2c1 | – | – | – | – | – | – | – | – | – | – | – | – | – | – | Competition for 1 d (XPRD) ([1]; EtOH, 50 °C, saturated solution of Compound (1), resulting crystal form): crystal form B; Competition for 2 d (XPRD) ([1]; IPAc, RT, saturated solution of Compound (1), resulting crystal form): crystal form B
COc1ccc2nc(NC(=O)c3cc(C)n(-c4sc(C)cc4C#N)c3C)[nH]c2c1 [compound of Formula (1), 1-(3-cyano-5-methylthiophen-2-yl)-N-(6-methoxy-1H-benzo[d]imidazol-2-yl)-2,5-dimethyl-1H-pyrrole-3-carboxamide] | – | – | – | – | – | – | – | – | – | – | – | – | – | – | Inhibiting the RNA helicase activity of DHX33 [6]: capable of inhibiting the RNA helicase activity of DHX33
COc1ccc2nc(NC(=O)c3cc(C)n(-c4sc(C)cc4C#N)c3C)[nH]c2c1 (single isomer, unassigned) [Anhydrous crystal form A, 1-(3-cyano-5-methylthiophen-2-yl)-N-(6-methoxy-1H-benzo[d]imidazol-2-yl)-2,5-dimethyl-1H-pyrrole-3-carboxamide] | – | good physical and chemical stability | No | 99.67 Area % | No | 99.60 Area % | No | good physical and chemical stability | 99.63 Area % | 3.24% | No | slight hygroscopicity | – | more thermodynamically stable anhydrous form | Sample weight change at 80% RH (%) [5, 9]: 3.24%; Whether crystal form changes before and after test [5, 9]: no changes in crystal form; Crystal form in VT-XRPD analysis ([7]; XRPD in situ, then cooled to room temperature): crystal form remained unchanged; Crystal form in heating experiment ([7]; maintained for 5 min, cooled to room temperature): crystal form remained unchanged

Second part, led by results:

Stability of the crystal form [2] | Physical and chemical stability [3] | Crystal form Change ([3]; 25 °C/60% RH) | Purity (Area %) ([3]; 25 °C/60% RH) | Crystal form Change ([3]; 40 °C/75% RH) | Purity (Area %) ([3]; 40 °C/75% RH) | Crystal form Change [4] | Physical and chemical stability [4] | Purity (Area %) [4] | Sample weight change at 80% RH (%) [5] | Whether crystal form changes before and after test [5] | Hygroscopicity [5] | Structure (SMILES) | Crystal form after air-drying [2] | Relative stability of crystal forms concluded from suspension competition [1] | also measured
metastable form | – | – | – | – | – | – | – | – | – | – | – | COc1ccc2nc(NC(=O)c3cc(C)n(-c4sc(C)cc4C#N)c3C)[nH]c2c1 [crystal form D, 1-(3-cyano-5-methylthiophen-2-yl)-N-(6-methoxy-1H-benzo[d]imidazol-2-yl)-2,5-dimethyl-1H-pyrrole-3-carboxamide] | converted into the anhydrous crystal form C | – | –
metastable form | – | – | – | – | – | – | – | – | – | – | – | COc1ccc2nc(NC(=O)c3cc(C)n(-c4sc(C)cc4C#N)c3C)[nH]c2c1 [crystal form B, 1-(3-cyano-5-methylthiophen-2-yl)-N-(6-methoxy-1H-benzo[d]imidazol-2-yl)-2,5-dimethyl-1H-pyrrole-3-carboxamide] | converted into the anhydrous crystal form A | relatively more stable in the case of the wet sample | –
– | good physical and chemical stability | No | 99.87 Area % | No | 99.90 Area % | No | good physical and chemical stability | 99.86 Area % | 3.71% | No | slight hygroscopicity | COc1ccc2nc(NC(=O)c3cc(C)n(-c4sc(C)cc4C#N)c3C)[nH]c2c1 (single isomer, unassigned) [Anhydrous crystal form C, 1-(3-cyano-5-methylthiophen-2-yl)-N-(6-methoxy-1H-benzo[d]imidazol-2-yl)-2,5-dimethyl-1H-pyrrole-3-carboxamide] | converted into the anhydrous crystal form A | – | Sample weight change at 80% RH (%) [5, 8]: 3.71%; Whether crystal form changes before and after test [5, 8]: no changes in crystal form

— patent US20260250273A1, “CRYSTAL FORM OF COMPOUND, AND PHARMACEUTICAL COMPOSITION AND USE THEREOF” (SHENZHEN KEYE LIFE TECHNOLOGIES CO., LTD, priority 2023, published 2026)
